# Assay results published in PubChem BioAssay (NCI).
#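 Growth conditions: 96-well plates. Treatment: test compound, 48 hours, 5 concentrations. Analysis: linear interpolation between bracketing concentrations; unreached endpoints set to highest concentration. TGI is the concentration that stops growth completely.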
# What was measured:
# Test in all cases: DTP human tumour cell line panel, 48 h
# [1] = tested on: UACC-257 melanoma
# [2] = tested on: U251 CNS
# [3] = tested on: SW-620 colon
# [4] = tested on: SK-OV-3 ovarian
# [5] = tested on: NCI/ADR-RES ovarian
# [6] = tested on: EKVX NSCLC
# [7] = tested on: SNB-75 CNS
# [8] = tested on: RPMI-8226 leukemia
# [9] = tested on: SF-268 CNS
# [10] = tested on: HOP-62 NSCLC
# [11] = tested on: UO-31 renal
# [12] = tested on: HCT-116 colon
# [13] = tested on: CCRF-CEM leukemia
# [14] = tested on: SR leukemia
# [15] = tested on: COLO 205 colon
# [16] = tested on: NCI-H522 lung
# [17] = tested on: HOP-92 NSCLC
# [18] = tested on: SK-MEL-2 melanoma
# [19] = tested on: UACC-62 melanoma
# [20] = tested on: T-47D breast
SMILES,TGI [1],TGI [2],TGI [3],TGI [4],TGI [5],TGI [6],TGI [7],TGI [8],TGI [9],TGI [10],TGI [11],TGI [12],TGI [13],TGI [14],TGI [15],TGI [16],TGI [17],TGI [18],TGI [19],TGI [20]
Cc1nc2ccc(S(=O)(=O)Nc3ccccc3)cc2c(=O)n1NC(=O)CNc1ccccc1,> 100 µM,> 100 µM,> 100 µM,> 100 µM,> 100 µM,> 100 µM,> 100 µM,> 100 µM,> 100 µM,> 100 µM,> 100 µM,> 100 µM,> 100 µM,> 100 µM,> 100 µM,> 100 µM,> 100 µM,> 100 µM,> 100 µM,
c1ccc(Cc2nc(Cc3n[nH]c(Cc4ccccc4)n3)n[nH]2)cc1,> 100 µM,> 100 µM,> 100 µM,> 100 µM,> 100 µM,> 100 µM,> 100 µM,> 100 µM,> 100 µM,> 100 µM,> 100 µM,> 100 µM,> 100 µM,> 100 µM,> 100 µM,> 100 µM,> 100 µM,> 100 µM,> 100 µM,
Clc1cc(Cc2cc(Cl)c(Cl)c3c2OCOC3)c2c(c1Cl)COCO2,> 100 µM,> 100 µM,> 100 µM,64.4 µM,,,52.3 µM,> 100 µM,> 100 µM,63 µM,> 100 µM,> 100 µM,> 100 µM,> 100 µM,> 100 µM,> 100 µM,41.8 µM,> 100 µM,> 100 µM,
COc1cccc(NC(=O)/C(CC(=O)CC(c2ccccc2)c2c(O)c3ccccc3oc2=O)=N\NC(C)(C)C)c1OC (stereo not given),> 100 µM,> 100 µM,> 100 µM,> 100 µM,,> 100 µM,> 100 µM,> 100 µM,> 100 µM,> 100 µM,> 100 µM,> 100 µM,> 100 µM,,> 100 µM,,> 100 µM,> 100 µM,> 100 µM,
O=C(COc1ccc(OCC(=O)N2C(=O)CSC2=Nc2ccccc2)cc1)N1C(=O)CSC1=Nc1ccccc1,> 100 µM,> 100 µM,> 100 µM,> 100 µM,> 100 µM,> 100 µM,> 100 µM,> 100 µM,> 100 µM,,> 100 µM,27.3 µM,,,96.2 µM,42.1 µM,> 100 µM,> 100 µM,36 µM,
CC(=O)OC1COC(Nc2ccc(C(C)=O)cc2)C(OC(C)=O)C1OC(C)=O (stereo not given),> 100 µM,> 100 µM,> 100 µM,> 100 µM,,> 100 µM,> 100 µM,> 100 µM,> 100 µM,> 100 µM,> 100 µM,,> 100 µM,> 100 µM,> 100 µM,> 100 µM,> 100 µM,> 100 µM,> 100 µM,
CC1(CO)OC(n2cc(C(=O)NC(=O)OCc3ccccc3)c(=O)[nH]c2=O)CC1O (stereo not given),> 100 µM,> 100 µM,> 100 µM,> 100 µM,,,> 100 µM,> 100 µM,> 100 µM,> 100 µM,> 100 µM,> 100 µM,> 100 µM,> 100 µM,> 100 µM,> 100 µM,> 100 µM,,> 100 µM,
N#C/C(=C/c1ccc[nH]1)P(=O)(O)O,> 100 µM,> 100 µM,> 100 µM,> 100 µM,,> 100 µM,> 100 µM,> 100 µM,> 100 µM,> 100 µM,> 100 µM,> 100 µM,> 100 µM,> 100 µM,> 100 µM,> 100 µM,> 100 µM,> 100 µM,> 100 µM,
Nc1ccc2nc(Nc3ccc(F)cc3)cnc2c1,> 100 µM,,> 100 µM,,,> 100 µM,> 100 µM,> 100 µM,> 100 µM,> 100 µM,> 100 µM,> 100 µM,> 100 µM,> 100 µM,> 100 µM,> 100 µM,,> 100 µM,,
CC(=O)OC[C@]1(O)CC[C@@]23CC1C[C@@H]2CCC1C(C)(C)CCC[C@@]13C (stereo not given in full),29.4 µM,27.1 µM,22.5 µM,28.9 µM,,,30 µM,28.1 µM,30.4 µM,32.2 µM,29.9 µM,24.2 µM,25.7 µM,23.6 µM,33.1 µM,14.7 µM,27.8 µM,,26.2 µM,
Cc1cc2nc(CCC(=O)O)c(=O)[nH]c2cc1C,> 100 µM,> 100 µM,,> 100 µM,,> 100 µM,> 100 µM,> 100 µM,> 100 µM,> 100 µM,> 100 µM,> 100 µM,> 100 µM,> 100 µM,> 100 µM,> 100 µM,> 100 µM,> 100 µM,> 100 µM,
O=C(CCc1ccccc1)ON1C(=S)NC(c2ccccc2)(c2ccccc2)C1=S,> 100 µM,> 100 µM,> 100 µM,> 100 µM,> 100 µM,> 100 µM,> 100 µM,80.4 µM,> 100 µM,> 100 µM,> 100 µM,> 100 µM,93.4 µM,,> 100 µM,,> 100 µM,47.8 µM,> 100 µM,> 100 µM
CC(C)c1ccc(C2C3=C(N=C4SCC(=O)N42)C(=O)c2ccccc23)cc1 (stereo not given),> 100 µM,> 100 µM,> 100 µM,> 100 µM,,> 100 µM,> 100 µM,> 100 µM,> 100 µM,> 100 µM,> 100 µM,> 100 µM,> 100 µM,,> 100 µM,98.7 µM,> 100 µM,> 100 µM,> 100 µM,
